Tests used:
Assay type in all cases: binding
[1] = target: T1, PsyArAT (psychrophilic aromatic amino acid aminotransferase) (Psychrobacter sp. B6, UniProt C7E5X4); assay: X-ray crystal structure (soaking of native crystals); details: active site, competitive inhibitor; bound in monomers A and C only; 10-fold molar excess of ligand, 5-fold PLP; pH 7.5
T1 construct: full-length Met1-Asp398, homodimer; E. coli; FOH/YOH/DOH complexes: protein as described previously; new construct: codon-optimised gene in pMCSG7, His6 tag removed by TEV, ArcticExpress (DE3)
T1 sequence (C7E5X4 entry or part of it): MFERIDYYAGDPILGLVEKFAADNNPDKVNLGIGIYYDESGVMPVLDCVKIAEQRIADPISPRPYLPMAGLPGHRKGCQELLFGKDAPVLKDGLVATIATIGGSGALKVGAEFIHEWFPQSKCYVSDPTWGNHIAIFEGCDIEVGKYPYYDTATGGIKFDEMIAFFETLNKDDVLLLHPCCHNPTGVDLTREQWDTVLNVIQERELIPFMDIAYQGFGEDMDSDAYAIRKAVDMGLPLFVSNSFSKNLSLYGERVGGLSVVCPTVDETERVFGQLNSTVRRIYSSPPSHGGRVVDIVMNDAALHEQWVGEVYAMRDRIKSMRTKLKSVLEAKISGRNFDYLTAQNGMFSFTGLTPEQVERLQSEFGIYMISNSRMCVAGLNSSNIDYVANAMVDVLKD

[2] = target: T1, PsyArAT (psychrophilic aromatic amino acid aminotransferase); assay: X-ray crystal structure (crystals grown in DL-malic acid); details: active site, competitive inhibitor; 2.1 M DL-malic acid pH 7.0, 0.1 M Tris-HCl pH 7.5
[3] = target: T1, PsyArAT (psychrophilic aromatic amino acid aminotransferase); assay: X-ray crystal structure (co-crystallisation); details: active site, competitive inhibitor; both monomers; 20-fold molar excess of ligand; pH 7.5; partial PLP occupancy

SMILES	X-ray crystal structure (co-crystallisation) [3]	further results
O=C(O)[C@@H](O)Cc1c[nH]c2ccccc12 [WOH, 3-indolelactic acid]	–	X-ray crystal structure (soaking of native crystals) [1]: The carboxylic group of the WOH is planar to the Arg374 guanidine group
O=C(O)C[C@H](O)C(=O)O [DOH, L-malic acid]	–	X-ray crystal structure (crystals grown in DL-malic acid) [2]: only L-malic acid (DOH) was bound in the active center
O=C(O)[C@@H](O)Cc1ccc(O)cc1 [YOH, 3-(4-hydroxyphenyl)-lactic acid]	interaction of the YOH inhibitor with the residues forming the active site of subunit A	–
O=C(O)[C@@H](O)Cc1ccccc1 [FOH, 3-phenyllactic acid]	carboxyl group of FOH creates two parallel hydrogen bonds with the guanidine group of Arg374	–
